This is an account of results in BindingDB's records for doi:10.1007/s10822-022-00478-x (Roche Innovation Center Basel, F. Hoffmann-La Roche Ltd., 2022).

The target in the experiment is cAMP and cAMP-inhibited cGMP 3',5'-cyclic phosphodiesterase 10A (Homo sapiens, UniProt Q9Y233). In words: PDE10A assay. The procedure: Compounds were diluted in 20 mM HEPES/NaOH (pH 7.5), 10 mM MgCl2 and 0.05 mg/ml bovine serum albumin. A fixed amount of 2 ng/well human PDE10A enzyme was added and incubated at room temperature for 15 min under agitation. The reaction was started by the addition of the substrate cocktail [3H]cGMP (Perkin Elmer NET337001MC, S.A. 13.5 Ci/mmol) / cGMP at a final concentration of 50 nM and incubated for an additional 15 min. The reaction was stopped by the addition of 0.5 mg/well of Y-Si SPA beads. The plates were shaken for 1 h, followed by a brief centrifugation (170 g for 1 min). The radioactivity bound to the beads was estimated using a TopCount (Perkin-Elmer). For the determination of IC50 values, a four parameters logistics equation was used. pIC50 is defined as − log10(IC50).

By IC50 is commonly meant the concentration at which inhibition is half-maximal. Read a high IC50 as weaker potency in that assay.

In turn, `O=C(Nc1ccnn1CCO)c1nc(C2CC2)ccc1Nc1cncnc1` [Roche-Dataset for PDE10A, Compound 860] showed an IC50 of 49 nM.

In the case of `Cn1ncc(Cl)c1C(=O)Nc1ccn2nc(-c3ccccc3)nc2c1` [Roche-Dataset for PDE10A, Compound 433], the midpoint of inhibition, the IC50, lay at 208 nM.

Compound `O=C(NCc1ccc2c(c1)CCO2)c1nc(C2CC2)cnc1Nc1cncnc1` [Roche-Dataset for PDE10A, Compound 718] displayed an IC50 of 148 nM.

`Cc1cnc(C)n2nc(/C=C/c3nc(Br)nn3C)nc12` [Roche-Dataset for PDE10A, Compound 1128] gave an IC50 of 2060 nM.

In the case of `Cc1cc(C)n2nc(/C=C/c3nc(N(C)C)nn3C)nc2n1` [Roche-Dataset for PDE10A, Compound 1144], the IC50 came out at 924 nM.

As to `CNC(=O)[C@@H]1CCC[C@H]1NC(=O)c1nc(C2CC2)cnc1Nc1cncnc1` [Roche-Dataset for PDE10A, Compound 971], inhibition was half-maximal at 1140 nM (IC50).

`Cc1nc2ccc(CCc3nc(-c4ccccc4)cn3C)nn2c1CO` [US10399985, Example 15] displayed an IC50 of 21 nM.

On to `Cn1ncc(C(=O)N2CCC2)c1C(=O)Nc1ccn2nc(-c3ccccc3OCCF)nc2c1` [Roche-Dataset for PDE10A, Compound 14], for which 0.35 nM corresponded to half-maximal inhibition (IC50).

In turn, `Cc1nc2ccc(NC(=O)c3c(C(=O)N4CCC4)cnn3C)cn2n1` [Roche-Dataset for PDE10A, Compound 1007] returned an IC50 of 3720 nM.

On to `O=C(Nc1ccccc1)c1cccc(NC(=O)c2nc(C3CC3)ccc2Nc2cncnc2)c1` [Roche-Dataset for PDE10A, Compound 556], for which the IC50 amounted to 6.79 nM.

Compound `CNC(=O)Cc1ccccc1NC(=O)c1nc(C2CC2)ccc1Nc1cncnc1` [Roche-Dataset for PDE10A, Compound 809] yielded an IC50 of 53 nM.

Compound `Cn1ncc(C(=O)N2CCC2)c1C(=O)N[C@@H]1CCn2cc(-c3ccc(F)cc3)nc2C1` [Roche-Dataset for PDE10A, Compound 261] registered an IC50 of 4.54 nM.

The compound `Cn1cc(-c2ccccc2)nc1CCc1nc2ccc(Cl)cc2c(=O)[nH]1` [Roche-Dataset for PDE10A, Compound 93] gave an IC50 of 9.14 nM.

In the case of `CNC(=O)c1cc2[nH]c(-c3ccccc3)nc2cc1NC(=O)c1cc(C)n(C(C)(C)C)n1` [Roche-Dataset for PDE10A, Compound 713], the IC50 was determined as 76 nM.

As to `Cc1ncc(C)n2nc(CCc3nc(C(=O)N(C)C)cn3C)nc12` [Roche-Dataset for PDE10A, Compound 609], the IC50 amounted to 1590 nM.

`O=C(Nc1cc(-c2ccccn2)nn1CC1CCCCC1)c1nc(C2CC2)ccc1Nc1cncnc1` [US8470820, 32] came in with an IC50 of 1.06 nM.

Compound `Cc1ncc(C)n2nc(/C=C/c3nc(N4CC[C@@H](C)[C@H]4C)nn3C)nc12` [Roche-Dataset for PDE10A, Compound 1115] registered an IC50 of 32 nM.

Turning to `CCN(C)C(=O)c1c(C(=O)Nc2ccn3cc(-c4ccccc4)nc3n2)cnn1C` [Roche-Dataset for PDE10A, Compound 144], the IC50 came to 10000 nM.

For the compound `CC1(NC(=O)c2ncccc2NC(=O)c2nc(C3CC3)cnc2Nc2cncnc2)COC1` [US8703768, 275], it took 0.38 nM to reach half-maximal inhibition (IC50).

Consider `Cn1nc(NC(=O)c2nc(C3CC3)ccc2Nc2cncnc2)cc1-c1ccccn1` [US8470820, 63], for which the IC50 was found to be 126 nM.

`COCCNC(=O)c1cc2[nH]c(-c3ccccc3)nc2cc1NC(=O)c1cc(Br)c[nH]c1=O` [Roche-Dataset for PDE10A, Compound 303] yielded an IC50 of 7.17 nM.

For the compound `CNC(=O)c1cc2[nH]c(-c3ccccc3)nc2cc1NC(=O)c1nc(C2CC2)ccc1Nc1cncnc1` [Roche-Dataset for PDE10A, Compound 621], the IC50 was 0.09 nM.

As to `Cn1nc(N2CCCC2)nc1CCc1nc2c(F)cc(F)cn2n1` [Roche-Dataset for PDE10A, Compound 407], it took 628 nM to reach half-maximal inhibition (IC50).

Compound `CCn1nccc1C(=O)Nc1cc2nc(-c3ccccc3)[nH]c2cc1C(=O)NC` [Roche-Dataset for PDE10A, Compound 482] gave an IC50 of 11 nM.

Consider `Cn1ncc(C(=O)N2CCC2)c1C(=O)N[C@@H]1CCn2c(nc(-c3ccccc3)c2Cl)C1` [Roche-Dataset for PDE10A, Compound 225], for which the IC50 stood at 6.96 nM.

Compound `O=C(NCCCS(=O)(=O)c1ccccc1)c1nc(C2CC2)cnc1Nc1cncnc1` [Roche-Dataset for PDE10A, Compound 665] came in with an IC50 of 822 nM.

In turn, `O=C(Nc1nc2cccnc2s1)c1nc(C2CC2)ccc1Nc1cncnc1` [Roche-Dataset for PDE10A, Compound 811] gave an IC50 of 20 nM.

Turning to `O=C(Nc1cn(-c2ccccn2)cn1)c1nc(C2CC2)ccc1Br` [Roche-Dataset for PDE10A, Compound 1003], the midpoint of inhibition, the IC50, lay at 434 nM.

In turn, `Cn1ncc(Br)c1C(=O)Nc1ccn2nc(-c3ccccc3)nc2c1` [Roche-Dataset for PDE10A, Compound 371] displayed an IC50 of 35 nM.

Compound `Cn1ncc(C(=O)N2CCC2)c1C(=O)Nc1ccc2sc(-c3ccccc3)nc2c1` [Roche-Dataset for PDE10A, Compound 174] had an IC50 of 0.77 nM.

`Cn1cc(-c2ccccc2)nc1COc1cc(N2CCOCC2)nc(-c2ccn[nH]2)n1` [Roche-Dataset for PDE10A, Compound 108] displayed an IC50 of 371 nM.

Consider `CN1CCN(c2cccc(NC(=O)c3nc(C4CC4)cnc3Nc3cncnc3)c2)CC1` [Roche-Dataset for PDE10A, Compound 741], for which the IC50 came out at 71 nM.

As for `Cn1cc(-c2cccc(CCc3nc(-c4ccccc4)cn3C)n2)cn1` [Roche-Dataset for PDE10A, Compound 296], the midpoint of inhibition, the IC50, lay at 6500 nM.

Turning to `Cn1cc(-c2ccccc2)nc1CCc1nc2cccc(Cl)c2c(=O)[nH]1` [Roche-Dataset for PDE10A, Compound 52], inhibition was half-maximal at 122 nM (IC50).

Turning to `O=C(NCc1ccc(C(F)(F)F)cc1)c1nc(C2CC2)cnc1Nc1cncnc1` [Roche-Dataset for PDE10A, Compound 668], the half-maximal inhibitory concentration (IC50) came out at 100 nM.

As to `Cc1nnc2c(C(=O)NCCc3nc(-c4ccccc4)cn3C)cccn12` [Roche-Dataset for PDE10A, Compound 166], the IC50 came out at 95 nM.

The compound `Cn1cc(-c2ccccc2)nc1/C=C/c1nc(N2CCOCC2)c2cc(Cl)ccc2n1` [Roche-Dataset for PDE10A, Compound 64] came in with an IC50 of 1.31 nM.

Compound `CC(C)Oc1cccc(NC(=O)c2nc(C3CC3)cnc2Nc2cncnc2)c1` [Roche-Dataset for PDE10A, Compound 721] came in with an IC50 of 9.47 nM.

`COc1ccc(Cn2ccc(NC(=O)c3c(C(=O)N4CCC4)cnn3C)n2)cc1` [Roche-Dataset for PDE10A, Compound 977] showed an IC50 of 79 nM.

For the compound `O=C(Nc1ccc2cccnc2c1)c1nc(C2CC2)ccc1Nc1cncnc1` [Roche-Dataset for PDE10A, Compound 929], the half-inhibitory concentration (IC50) is 5.75 nM.

In turn, `Cn1cc(-c2ccccc2)nc1COc1cc(N2CCOCC2)nc(-c2cccnc2)n1` [Roche-Dataset for PDE10A, Compound 312] yielded an IC50 of 269 nM.

The compound `CCn1nc(C)cc1C(=O)Nc1cc2nc(-c3ccccc3)[nH]c2cc1C(=O)NC` [Roche-Dataset for PDE10A, Compound 369] gave an IC50 of 22 nM.

In the case of `O=C(Nc1ccc(O)c2c1CCCC2=O)c1nc(C2CC2)cnc1Nc1cncnc1` [Roche-Dataset for PDE10A, Compound 949], inhibition was half-maximal at 10 nM (IC50).

`Cc1cc(-c2nc3cc(NC(=O)c4c(C(=O)N5CCC5)cnn4C)ccn3n2)ccn1` [Roche-Dataset for PDE10A, Compound 234]: half-maximal inhibition (IC50) required 1.91 nM.

Compound `CNC(=O)c1c(NC(=O)c2nc(C)c(C)nc2Nc2cncnc2)cnn1C` [Roche-Dataset for PDE10A, Compound 1099] gave an IC50 of 7810 nM.

For `Cn1ncc(C(=O)N2CCC2)c1C(=O)Nc1ccn(-c2ccc(Cl)cc2Cl)n1` [Roche-Dataset for PDE10A, Compound 1034], inhibition was half-maximal at 1060 nM (IC50).

`CCOc1ccccc1C(=O)Nc1cc(-c2ccccn2)n[nH]1` [Roche-Dataset for PDE10A, Compound 876] showed a half-inhibitory concentration (IC50) of 1480 nM.

In turn, `O=C(Nc1cnc(-c2ccccn2)s1)c1nc(C2CC2)ccc1Nc1cncnc1` yielded an IC50 of 2.26 nM.

Consider `Cc1nc(C(F)(F)F)n2nc(CCc3nc(N4CCCC4)nn3C)nc2c1C` [Roche-Dataset for PDE10A, Compound 432], for which it took 7.54 nM to reach half-maximal inhibition (IC50).

Compound `Cc1c(NC(=O)c2c(C(=O)N3CCC3)cnn2C)ccn2nc(-c3ccccc3)nc12` [Roche-Dataset for PDE10A, Compound 341] returned an IC50 of 16 nM.

With `Cn1ncc(C(=O)NCc2nc3ccccc3[nH]2)c1C(=O)Nc1ccn2cc(-c3ccccc3)nc2n1` [Roche-Dataset for PDE10A, Compound 1153], the IC50 worked out at 1520 nM.

In turn, `Cc1ccccc1-c1cn2c(n1)C[C@H](NC(=O)c1c(C(=O)N3CCC3)cnn1C)CC2` [Roche-Dataset for PDE10A, Compound 495] displayed an IC50 of 7.85 nM.

Compound `CCOc1cc(NC(=O)c2nc(C3CC3)cnc2Nc2cncnc2)ccn1` [Roche-Dataset for PDE10A, Compound 765] displayed a half-inhibitory concentration (IC50) of 53 nM.

Compound `CN(c1nc2cc(NC(=O)c3c(C(=O)O)cnn3C)ccn2n1)C1CC1` [Roche-Dataset for PDE10A, Compound 649] had an IC50 of 42 nM.

`COC(=O)c1cc(Cl)c(C)n2nc(CCc3nc(N4CCCC4)nn3C)nc12` [Roche-Dataset for PDE10A, Compound 325]: the IC50 came to 432 nM.

Turning to `CNC(=O)[C@H]1CCC[C@@H]1NC(=O)c1nc(C2CC2)cnc1Nc1cncnc1` [Roche-Dataset for PDE10A, Compound 1000], the IC50 stood at 696 nM.

For the compound `CCN(C)C(=O)c1cnn(C)c1C(=O)Nc1ccn2cc(-c3cccc(OCCO)c3)nc2n1` [Roche-Dataset for PDE10A, Compound 39], the IC50 amounted to 8.81 nM.
